Measurements reported in patent publication US12115154B2, “Compounds for the modulation of proprotein convertase subtilisin/kexin type 9 (PCSK9)” (SRX Cardio, LLC, priority 2020, dated 2024).

Key:
PCSK9 = target: T1, PCSK9 (Homo sapiens, UniProt Q8NBP7); experiment: Biodesy Direct Binding Measurement (second harmonic generation); conditions: Biodesy Delta System
T1 construct: purchased Cayman Chemical 20631; host or cells: added to HepG2, HuH7, FL83B or shPCSK9 knock-down lines
Source text: The compounds of the present disclosure may be tested for binding to, inhibition of, and/or modulation of PCSK9 activity according to the following protocols.
Direct binding can be measured using the commercially available Biodesy Delta System (BDS, http://www.biodesy.com/products/; accessed Aug. 1, 2018). The BDS is a laser-based approach that utilizes second harmonic generation from a labeled protein to detect ligand binding, the method of which is covered and described by U.S. Pat. Nos. 9,395,358 and 8,932,822, and has been commercialized by Biodesy Inc. (South San Francisco, Calif.).

[1] = In vivo PK in mice (IV and PO); conditions: male, C57BL/6, mouse, plasma, 3 mg/kg IV versus 15 mg/kg PO, read-out: oral bioavailability (F %)
Protocol: (§1) A representative compound (Compound 1041) was tested for oral bioavailability and efficacy in mice. Male C57BL/6 mice were purchased from Taconic Biosciences (Rensselaer, New York) and housed under standard conditions with the exception of being provided a high fat diet (#TD.90221, Envigo, Madison, Wis.) and water ad libitum. Following 4 weeks of diet acclimation the animals were then dosed with compound or vehicle as control specimens. Compound readily dissolved at 1.5 mg/ml in a 1% Tween-80 aqueous solution with 10-15 minutes sonication. This solution was used at the 1.5 mg/ml concentration for oral (PO) dosing or further diluted with sterile saline for intravenous (IV) dosing.
Test animals received a single dose at 3 mg/kg by IV or 15 mg/kg by PO while control animals received an equal volume of vehicle control by IV or PO, respectively. Plasma samples were collected at 0.25, […], 1, 2, 3, 6, 8, 24, and 48 hours while liver specimens were collected at 8, 24, and 48 hours and drug concentration were measured by LC-MS/MS per standard protocols.
In brief, blood was immediately centrifuged, and the resulting plasma was frozen and stored at −80° C. until analysis. […] Compound concentrations were determined by a liquid chromatography-mass tandem spectrometry (LC-MS/MS) per routine method (Quintana Discovery, Hayward, Calif.) following the standard protocol. […]

Male C57BL/6 mice [2] = experiment: In vivo efficacy: serum LDL in high fat diet mice; conditions: for reduction in LDL: daily PO 15 mg/kg
Protocol: as §1
[…] Plasma samples were collected at 0.25, […], 1, 2, 3, 6, 8, 24, and 48 hours while liver specimens were collected at 8, 24, and 48 hours and drug concentration were measured by LC-MS/MS per standard protocols.
Serum lipid levels were measured using commercially available veterinary health testing services provided by IDEXX BioAnalytics (North Grafton, Mass.). Blood specimens were collected from the animals and the resulting serum was frozen and stored at −80° C. until analysis. Specimens were measured using the commercial service's standard procedures for the Rodent Lipid Panel (Test Code #6290).

Male C57BL/6 mice [3] = experiment: Liver panel (animal health) in high fat diet mice; assay type: in vivo
Protocol: as §1
To assess animal health following compound exposure, a liver panel (Test Code #60405) was tested by IDEXX BioAnalytics (North Grafton, Mass.). […] Also of note, AST and ALT levels in the liver panel were elevated in the PO vehicle, which is attributed to the high fat diet used in the study (Envigo, #TD.90221).

[4] = Dissolution in dosing solution; assay type: physicochemical; conditions: 1% Tween-80 aqueous solution, 10-15 minutes sonication
Protocol: as §1

[5] = daily 15 mg/kg PO, 72-hour group, versus vehicle control

T1 sequence (Q8NBP7 153-692): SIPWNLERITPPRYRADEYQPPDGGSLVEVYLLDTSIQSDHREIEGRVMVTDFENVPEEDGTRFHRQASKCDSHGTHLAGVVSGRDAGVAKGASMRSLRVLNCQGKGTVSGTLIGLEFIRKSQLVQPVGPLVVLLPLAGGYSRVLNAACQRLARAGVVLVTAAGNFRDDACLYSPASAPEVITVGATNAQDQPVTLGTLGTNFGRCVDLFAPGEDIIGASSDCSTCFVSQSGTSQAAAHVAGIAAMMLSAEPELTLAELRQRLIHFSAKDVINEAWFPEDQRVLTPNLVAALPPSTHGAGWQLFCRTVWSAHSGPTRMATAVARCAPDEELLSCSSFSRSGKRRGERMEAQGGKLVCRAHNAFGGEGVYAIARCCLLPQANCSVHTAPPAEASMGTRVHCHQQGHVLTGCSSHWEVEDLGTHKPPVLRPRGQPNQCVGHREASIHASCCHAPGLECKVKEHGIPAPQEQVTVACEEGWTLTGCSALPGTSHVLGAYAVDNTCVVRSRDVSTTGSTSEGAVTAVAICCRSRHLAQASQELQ

Fc1ccc(-c2ccc(C3CCCN(CC4CC4)C3)cc2)cc1 (stereo not shown) [Compound 1.001, 1-(cyclopropylmethyl)-3-(4′-fluoro-[1,1′-biphenyl]-4-yl)piperidine]
ASHG (PCSK9): > 10%

Cc1cc(-c2ccc(F)cc2)ccc1C1CCCN(C2CCCC2)C1 (stereo not shown) [Compound 1.041, 1-cyclopentyl-3-(4′-fluoro-3-methyl-[1,1′-biphenyl]-4-yl)piperidine]
bioavailability [1]: 44% | reduction in LDL (Male C57BL/6 mice [2]; at 48 hours (dosed at t=0 and t=24 hours)): 32% | reduction in LDL (Male C57BL/6 mice [2]; at 72 hours (dosed at t=0, t=24, t=48 hours)): 50% | reduction in LDL relative to IV vehicle control group (Male C57BL/6 mice [2]; single 3 mg/kg IV dose, 48 hours after dosing): 19% | reduction in LDL relative to PO vehicle control group (Male C57BL/6 mice [2]; single 15 mg/kg PO dose, 48 hours after dosing): 32% | reduction in ALT levels (Male C57BL/6 mice [3]; [5]): 77.7% | reduction in AST levels (Male C57BL/6 mice [3]; [5]): 72.1% | liver panel toxicity (Male C57BL/6 mice [3]; three daily 15 mg/kg PO doses, 72 hours, versus PO vehicle): no overt toxicity | concentration readily dissolved [4]: ≥ 1500 µg/mL
